Source: patent publication US11505581B2, “Antigens and T cell epitopes from cockroach and methods of making and using same” (La Jolla Institute for Allergy and Immunology, priority 2015, dated 2022)

Tested on: PBMC
Assay: ELISPOT (IFNγ, IL-5, IL-10, IL-17, IL-21) of PBMC expanded 14 days with Bla g extract, then stimulated with peptides or peptide pools
Type: cell-based, human
Design: key to Average Magnitude of Response: spot forming cells (SFC) per 10^6 PBMC; Response Rate per Subject: unit not given here
Settings: for Average Magnitude of Response / Response Rate per Subject: non-redundant epitopes, sensitized donors
Experimental: PBMC Isolation and Cell Cultures: PBMC (peripheral blood mononuclear cells) were isolated from 450 mL (one unit) of blood by density gradient centrifugation as described and cryopreserved. For in vitro expansion of PBMC for peptide screening, cells were cultured in RPMI1640 (Omega Scientific)+5% human AB serum (Gemini Bioscience), GlutaMAX (Gibco), and penicillin/streptomycin (Omega Scientific) at 2×10^6 per mL, stimulated with 10 ug/mL Bla g extract (Greer), and incubated at 37° C. in 5% CO2. Every three days, IL-2 and IL-7 (10 U/mL) were added to the cultures. Cells were harvested for peptide screening at day 14.
ELISPOT Assays: Production of IFNγ, IL-5, IL-17, IL-10, and IL-21 (as representative of TH1, TH2, TH17, TR1, and […], respectively) in response to peptide stimulation was measured by ELISPOT as described previously. […] In brief, 1×10^5 cells per well were incubated with peptide, peptide pool, or Bla g extract (10, 5, and 10 ug/ml, respectively) on anti-lymphokine antibody coated ELISPOT plates (Millipore #MSIPS4510) for 22 hours. Subsequently, secondary anti-lymphokine antibodies were added and incubated for 2 hours, washed, and avidin-peroxidase complex added for 1 hour. Plates were washed and spots developed with 3-amino-9-ethylcarbazole (Sigma #A6926) and Vector Blue (Vector #SK-5300) for IFNγ/IL-5 and IL-10/IL-17 dual plates or TMB (Sigma #T0565) for single IL-21. Criteria for peptide pool positivity were at least 100 spot forming cells (SFC) per 10^6 PBMC, p<0.05, and stimulation index≥2. Criteria for peptide positivity were identical except with a threshold of 20 SFCs.
We synthetized overlapping peptide sets of 15 amino acids in length overlapping by 10 residues and covering the entire sequence of known Bla g Allergens, i.e. Bla g 1-7, 9 and 11, referred from hereafter collectively as BLAGA. A total of 809 BLAGA peptides were arranged in pools, encompassing on average 20 peptides.
To assess T cell reactivity, we utilized a strategy applied to the definition of epitopes from various allergen sources^15,16 utilizing in vitro stimulation with allergen extracts. Here, PBMC from each subject were stimulated in vitro with Bla g extract. After 14 days, pools of overlapping 15-mer peptides from the BLAGA were tested for responses, and positive pools deconvoluted to identify the specific epitopes. As readout, we utilized ELISPOT assays specific for IL-5, IFNγ, IL-10, IL-17 and IL-21, chosen as representative of TH2, TH1, TR1, TH17 and TFH reactivity, respectively.

[1] = Asthmatic (combines IA, MMA, SA)

Substance | Average Magnitude of Response | Response Rate per Subject | also measured
Triosephosphate isomerase [TPI] |  |  | % (percentage of subjects responding to given antigen) (AR): 6%; SFC (mean magnitude of response) (AR): 13 SFC; % (percentage of subjects responding to given antigen) [1]: 11%; SFC (mean magnitude of response) [1]: 31 SFC; % (percentage of subjects responding to given antigen) (Controls): 2%; SFC (mean magnitude of response) (Controls): 17 SFC; % (percentage of subjects responding to given antigen) (IA): 6%; SFC (mean magnitude of response) (IA): 6 SFC; % (percentage of subjects responding to given antigen) (MMA): 11%; SFC (mean magnitude of response) (MMA): 83 SFC; % (percentage of subjects responding to given antigen) (SA): 23%; SFC (mean magnitude of response) (SA): 54 SFC; T cell reactivity (cytokine release) to NBGA, in words (sensitized subjects, 2-week extract stimulation): Significant reactivity
WCNEEDHLRIISMQM | 13.1 | 7.1 | 
YHYDADENSKQKKWD | 3.7 | 2.9 | 
QQFISSEMVEPKEAS | 6.8 | 2.9 | 
YLGKQFGLSGKDDWE | 22.6 | 8.6 | 
SINLMFSQMYHAQLA | 4.3 | 1.4 | 
IRHAILAAGDLYSRR | 5.5 | 1.4 | 
VEALFLLMKADPSIH | 4.2 | 1.4 | 
KFEGNKFTIDYNDKG | 14.2 | 4.3 | 
IQGKFGLDATAVGDE | 6.9 | 1.4 | 
